# Source: US11414454B2, “Compositions, methods, and systems for affinity-based protein identification and purification” (Auctus Biologies, Inc., priority 2017, dated 2022)
# No end group written: not given here.
# What was measured:
# [1] = test system: RPtag (large) resin; experiment: Affinity-based precipitation/pull-down with RPtag (large) resin; assay type: binding, Thermoanaerobacter tengcongensis; conditions: negative control peptide
# Procedure: The disclosed proteins and peptides were used in precipitation/pull-down assays. Specifically, rhodamine was tagged with the RPtag(small) Nd8Cd4 peptide and RPtag(large) was immobilized on a resin, as described above.
# Briefly, 100 μL 1000 nM rhodamine labeled RPtag(small) peptide was incubated with 2.5 uL wet settled RPtag (large) resin generated as (as described above) in phosphate buffered saline (PBS; Gibco)+1% BSA+0.005% Tween 20 at 4° C. for 60 min with continuous orbital shaking. Samples were then washed 3× with 500 μL of the same buffer with no peptide to remove unbound peptide. Bound RPtag(small) peptides were then eluted with 100 μL 100 mM glycine pH 1.5+0.005% Tween20, and the pH raised by adding 1 μL 1 M borate pH 10.0. The amount eluted was calculated from the blank subtracted fluorescence of the elution versus the load. After each elution, resin was washed once with 500 μL 6M GdnHCl and once with 500 μL phosphate buffered saline (Gibco)+1% BSA+0.005% Tween 20, before repeating the assay.
# Sequential precipitation/pulldown trials were performed with the rhodamine labelled RPtag(small) Nd8Cd4 peptide, and the RPtag(large)-resin. After binding and pull-down, the rhodamine-peptide was eluted in 100 mM glycine pH 1.5, the column was washed with water and 6 M guanidine hydrochloride, and then re-equilibrated with buffer (50 mM Tris pH 8.0, 10 mM EDTA). […]
# [2] = biological target: RPtag (large); experiment: Fluorescence anisotropy Kd of rhodamine labeled RPtag (small) peptides for RPtag (large); assay type: binding, Thermoanaerobacter tengcongensis
# Procedure: (§1) 50 nM of RP-Tag Small (see Sequence 3, below) with an N-terminal Rhodamine B label was incubated with increasing concentrations of either RP-Tag Large (see Sequence 2) or Bovine Serum Albumin (BSA) in 50 mM Tris pH 8.0, 150 mM NaCl, 10 mM 2-mercaptoethanol, and 0.005% Tween 20 for 5 min in black 96-well plates at room temperature.
# (§2) Anisotropy was then measured, and a Kd calculated by fitting the data to the equation f=y0+(ymax−y0)*(Ptot+x+Kd−sqrt((Ptot+x+Kd)^2−4*Ptot*x))/(2*Ptot), where y0 is the baseline anisotropy, ymax is the maximum anisotropy, Ptot is the fixed concentration of labeled peptide used, x is the variable concentration of protein used, and Kd is the measured Kd.
# (§3) The indicated concentrations of RPtag (large) and an anti-His tag antibody (4E3D10H2/E3 purchased from ThermoFisher Scientific) were incubated with 1 nM rhodamine labeled native RPtag (small) peptide and 6×His peptide (Rhodamine-GHHHHHH), respectively, and fluorescence anisotropy measured. BSA incubated with native rhodamine labeled RPtag(small) is included as a control for non-specific binding. Kd's were calculated according to the equation f=y0+(ymax−y0)*(Ptot+x+Kd−sqrt((Ptot+x+Kd)^2−4*Ptot*x))/(2*Ptot), where y0 is the baseline anisotropy, ymax is the maximum anisotropy, Ptot is the fixed concentration of labeled peptide used, x is the variable concentration of protein used, and Kd is the measured Kd. We measured a Kd of 0.2±0.1 nM for RPtag(large) binding RPtag(small), and a Kd of 6±1 nM for the antibody/6×His tag pair.
# Regarding the studies shown in FIG. 14, increasing concentrations of unlabeled RPtag large with the indicated mutations (native, f137d, and f137e) were incubated for 1 h with 1 nM rhodamine labeled RPtag small peptide and the fluorescence anisotropy was measured. Resultant curves were fit with the equation f=y0+(ymax−y0)*(Ptot+x+Kd−sqrt((Ptot+x+Kd)^2−4*Ptot*x))/(2*Ptot), where y0 is the baseline anisotropy, ymax is the maximum anisotropy, Ptot is the fixed concentration of labeled peptide used, x is the variable concentration of protein used, and Kd is the measured Kd. Data are presented here as Ka=1/Kd. Log transformed Ka's were then compared by one-way ANOVA with Holm-Sidak post hoc correction. ***p<0.001, **p<0.01, *p<0.05. data are mean±SEM (n=3-4). Buffer was 50 mM Tris pH 8.0, 0.005% tween20. Proteins were expressed and purified by single step NiNTA chromatography as before. Peptides were synthesized solid-state and handled as previous.
# [3] = test system: immobilized RP-Tag Large; experiment: Column elution trials of rhodamine labeled RP-Tag Small bound to immobilized RP-Tag Large; assay type: binding, Thermoanaerobacter tengcongensis
# Procedure: One embodiment of the disclosed RP-Tag system was tested by creating a column with one component bound to a solid, agarose-based matrix. In these experiments, a SulfoLink™ Immobilization kit (ThermoFisher scientific) was used to affix RP-Tag Large to a solid support, according to the manufacturer's instructions. For these experiments, an N-terminal linker was added to RP-Large that included a Cys residue. One of skill in the art is able to select various techniques and chemistries to aid in affixing either RP-Tag protein to a solid support matrix.
# The amount of protein linked to the column was determined using a BCA assay with Bovine Serum Albumin (BSA) as a standard. […] The linked resin was poured into an included column and the column capped with a frit included in the kit (see photos in FIG. 2). The column was equilibrated with several volumes of 50 mM Tris pH 8.5, 150 mM NaCl, 5 mM EDTA.
# 25 mL of 1 μM Rhodamine-6B labeled RP-Tag Small, in 50 mM Tris pH 8.5, 150 mM NaCl, 5 mM EDTA, was flowed over the column of immobilized RP-Tag Large protein. RP-Tag Small bound the column and formed a visibly bright red band (rhodamine B) at the top of the resin (see FIG. 2).
# Briefly, after binding, the RP-Tag Small red band was not observed to appreciably diffuse and/or elute after washing the column (and band) with various solutions. For these tests, 10 mL (5 column volumes) of various buffers were added to the column. The tested buffers ranged from about pH 1.5-13.7 and about 1 M sodium hydroxide.
# Table 1. Summary of elution trial data. The test system used was a column equilibrated with 50 mM Tris pH 8.5, 150 mM NaCl, 5 mM EDTA, and applied 25 mL 1 μM Rhodamine-6B labeled RP-small peptide in the same buffer. In cases where D-ribose was used, the indicated concentration was also included in the equilibration and loading buffer.
# [4] = biological target: Bovine Serum Albumin (BSA) (Bos taurus, UniProt P02769); assay type: binding; conditions: fluorescence anisotropy, rhodamine labeled peptide; up to 10 μM BSA
# Bovine Serum Albumin (BSA), sequence (P02769 25-607): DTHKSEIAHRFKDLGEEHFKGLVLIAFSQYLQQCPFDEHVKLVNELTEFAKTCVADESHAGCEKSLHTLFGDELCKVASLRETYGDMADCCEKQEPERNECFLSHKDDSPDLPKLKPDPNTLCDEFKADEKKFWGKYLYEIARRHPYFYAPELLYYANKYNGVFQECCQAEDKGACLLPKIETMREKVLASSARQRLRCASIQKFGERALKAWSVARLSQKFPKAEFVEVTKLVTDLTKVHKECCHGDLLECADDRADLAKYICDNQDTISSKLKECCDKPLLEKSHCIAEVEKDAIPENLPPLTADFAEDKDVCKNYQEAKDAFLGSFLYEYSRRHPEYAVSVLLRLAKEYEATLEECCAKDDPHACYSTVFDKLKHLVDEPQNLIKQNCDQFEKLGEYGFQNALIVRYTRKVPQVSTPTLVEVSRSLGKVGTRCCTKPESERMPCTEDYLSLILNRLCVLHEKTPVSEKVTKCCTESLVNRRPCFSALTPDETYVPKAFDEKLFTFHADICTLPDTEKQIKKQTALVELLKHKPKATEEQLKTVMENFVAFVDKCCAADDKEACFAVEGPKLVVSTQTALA
# Procedure: as §1, §2, §3
# [5] = test system: F137D RPtag(large); experiment: Compensatory mutation binding study by fluorescence anisotropy; set-up: species or system Thermoanaerobacter tengcongensis; conditions: 1 nM rhodamine labeled peptide
# F137D RPtag(large), sequence (as listed by the source, stated change not applied): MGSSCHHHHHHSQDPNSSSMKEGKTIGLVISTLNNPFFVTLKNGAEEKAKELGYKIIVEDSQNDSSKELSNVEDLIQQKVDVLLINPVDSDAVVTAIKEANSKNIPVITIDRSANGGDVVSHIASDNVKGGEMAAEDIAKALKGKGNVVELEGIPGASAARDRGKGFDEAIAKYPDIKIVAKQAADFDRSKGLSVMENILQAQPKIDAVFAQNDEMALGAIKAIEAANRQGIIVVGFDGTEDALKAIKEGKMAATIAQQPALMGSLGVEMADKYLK
# Excerpt: The possibility of creating compensatory mutations in the two sequences was investigated by modifying position 14 of RPtag(small) and position 137 of RPtag(large). First, a positively charged lysine (K) was introduced at position L14 of RPtag(small) (FIG. 14). […] Next, position F137 of RPtag(large) was mutated to aspartic acid (D), which is a negatively charged residue under physiologic conditions. This substitution was introduced into RPtag(large) to balance the charge with the L14K substitution, and help restore interaction between the two residues. […] In other embodiments, different compensatory mutations may be introduced at F137 and L14, as well as other positions in the two RPtag proteins.
# Regarding the studies shown in FIG. 14, increasing concentrations of unlabeled RPtag large with the indicated mutations (native, f137d, and f137e) were incubated for 1 h with 1 nM rhodamine labeled RPtag small peptide and the fluorescence anisotropy was measured. Resultant curves were fit with the equation f=y0+(ymax−y0)*(Ptot+x+Kd−sqrt((Ptot+x+Kd)^2−4*Ptot*x))/(2*Ptot), where y0 is the baseline anisotropy, ymax is the maximum anisotropy, Ptot is the fixed concentration of labeled peptide used, x is the variable concentration of protein used, and Kd is the measured Kd. Data are presented here as Ka=1/Kd. […]
# RPtag (large) resin, sequence (as listed by the source): as the sequence (as listed by the source, stated change not applied) above, with D137F counted along it
sequence,measurement,setting,value
GEKIPNFIP [Cd12],binding in pulldown,[1],no binding
same,Kd,"[2]; N-terminal rhodamine tagged peptide, unlabeled RPtag (large), 50 mM Tris pH 8.0, 0.005% Tween 20, mean ± SE",> 100000 nM
GEKIPNFIPAELKLITKENVQ [RP-Tag Small],Result of elution trial (bound rhodamine band),[3]; 0.1M Tris pH 7.5 + 100 μM unlabeled RP tag peptide,"Partial band elution, slight"
same,Result of elution trial (bound rhodamine band),[3]; 0.1M Tris pH 7.5 + 6M guanidine hydrochloride,Complete band elution
same,Result of elution trial (bound rhodamine band),[3]; 0.1M Tris pH 7.5 + 6M guanidine hydrochloride + 10 mM D-ribose,"partial band elution,"
same,Result of elution trial (bound rhodamine band),[3]; 0.1M Tris pH 7.5 + 6M guanidine hydrochloride + 100 mM D-ribose,"no band elution, significant"
same,Result of elution trial (bound rhodamine band),[3]; 0.1M Tris pH 7.5 + 6M guanidine hydrochloride + 1M D-ribose,"No band elution, minor"
same,Result of elution trial (bound rhodamine band),[3]; 5 column volumes 0.05M sodium acetate pH 4.6,No band diffusion/elution
same,Result of elution trial (bound rhodamine band),[3]; 5 column volumes 0.1M Tris pH 7.5,No band diffusion/elution
same,Result of elution trial (bound rhodamine band),[3]; 5 column volumes 0.1M Tris pH 8.0,No band diffusion/elution
same,Result of elution trial (bound rhodamine band),[3]; 5 column volumes 0.1M Tris pH 8.5,No band diffusion/elution
same,Result of elution trial (bound rhodamine band),[3]; 5 column volumes 0.1M glycine pH 1.5,Complete band elution
same,Result of elution trial (bound rhodamine band),[3]; 5 column volumes 0.1M glycine pH 2.5,No band diffusion/elution
same,Result of elution trial (bound rhodamine band),[3]; 5 column volumes 0.1M glycine pH 3.5,No band diffusion/elution
same,Result of elution trial (bound rhodamine band),[3]; 5 column volumes 0.1M sodium phosphate pH 12.0,No band diffusion/elution
same,Result of elution trial (bound rhodamine band),[3]; 5 column volumes 0.1M sodium phosphate pH 13.0,No band diffusion/elution
same,Result of elution trial (bound rhodamine band),[3]; 5 column volumes 0.1M sodium phosphate pH 13.7,No band diffusion/elution
same,Result of elution trial (bound rhodamine band),[3]; 5 column volumes 1M sodium hydroxide,No band diffusion/elution
same,stability of bound band on column,[3]; room temperature,> 1 week
same,binding to BSA,[4],no binding
same,Kd,"[2]; 50 nM N-terminal Rhodamine B RP-Tag Small, 50 mM Tris pH 8.0, 150 mM NaCl, 10 mM 2-mercaptoethanol, 0.005% Tween 20",8 nM
GEKIPNFIPAELKKITKENVQ [l14k],binding affinity for F137D RPtag(large),[5],substantially restored the binding affinity
same,binding to native RPtag(large),"[2]; 1 nM rhodamine labeled peptide, 50 mM Tris pH 8.0, 0.005% tween20",significantly impaired binding
